The text below walks through data of publication PMC10801920 (Proceedings of the National Academy of Sciences of the …, 2024).

In general, stoichiometry N refers to the number of molecules, sites or subunits per partner or assembly.

Data set [1] concerns the target T1, CtSpartinL (Thermochaetoides thermophila, UniProt G0S883).
T1 sequence (G0S883 7-480): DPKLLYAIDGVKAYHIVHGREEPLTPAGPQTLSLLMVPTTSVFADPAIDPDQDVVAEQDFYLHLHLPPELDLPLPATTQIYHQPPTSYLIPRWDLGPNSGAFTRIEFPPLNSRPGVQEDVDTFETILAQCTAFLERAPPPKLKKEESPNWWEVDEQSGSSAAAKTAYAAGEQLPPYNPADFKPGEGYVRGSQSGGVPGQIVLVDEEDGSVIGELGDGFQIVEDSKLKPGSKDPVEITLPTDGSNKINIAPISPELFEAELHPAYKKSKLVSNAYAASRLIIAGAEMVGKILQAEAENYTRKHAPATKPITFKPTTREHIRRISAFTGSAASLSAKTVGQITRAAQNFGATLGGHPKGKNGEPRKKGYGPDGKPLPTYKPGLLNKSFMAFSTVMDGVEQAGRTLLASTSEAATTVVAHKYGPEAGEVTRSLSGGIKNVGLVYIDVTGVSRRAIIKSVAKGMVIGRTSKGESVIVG
In words: FRET-based lipid transfer between tethered liposomes. Conditions: 30 C, pH 8.0; labelled compound. The data set is classed as biochemical.

Data set [2] concerns the target T2, CeSpartin (Caenorhabditis elegans, UniProt O44735).
T2 sequence (O44735 1-476): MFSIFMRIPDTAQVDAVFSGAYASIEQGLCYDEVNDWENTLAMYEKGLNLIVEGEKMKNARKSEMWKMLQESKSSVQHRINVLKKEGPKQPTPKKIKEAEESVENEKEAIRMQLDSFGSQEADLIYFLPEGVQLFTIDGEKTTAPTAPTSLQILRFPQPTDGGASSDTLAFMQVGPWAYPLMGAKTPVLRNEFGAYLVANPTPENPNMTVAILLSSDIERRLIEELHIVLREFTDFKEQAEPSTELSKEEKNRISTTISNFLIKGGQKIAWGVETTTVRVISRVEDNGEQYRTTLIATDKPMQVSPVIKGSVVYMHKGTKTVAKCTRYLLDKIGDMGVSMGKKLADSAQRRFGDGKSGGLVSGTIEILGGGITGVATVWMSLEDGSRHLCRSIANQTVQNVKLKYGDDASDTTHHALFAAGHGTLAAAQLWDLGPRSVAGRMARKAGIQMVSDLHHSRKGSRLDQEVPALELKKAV
The description is as above. Conditions: 30 C, pH 8.0, labelled compound. It is filed as biochemical.

The target in data set [3] is T3, CtSpartinLSD (Thermochaetoides thermophila, UniProt G0S883).
T3 sequence (G0S883 186-480): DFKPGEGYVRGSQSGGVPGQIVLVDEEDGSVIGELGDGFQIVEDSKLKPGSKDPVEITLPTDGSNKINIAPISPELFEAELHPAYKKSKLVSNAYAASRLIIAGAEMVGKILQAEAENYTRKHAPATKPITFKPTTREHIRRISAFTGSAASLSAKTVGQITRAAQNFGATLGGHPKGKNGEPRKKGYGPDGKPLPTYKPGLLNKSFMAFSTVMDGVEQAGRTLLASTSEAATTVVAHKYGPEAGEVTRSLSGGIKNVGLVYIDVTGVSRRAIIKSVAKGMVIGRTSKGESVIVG
The experiment in a line: native gel comigration. The data set is classed as binding. To be noted: on ice, 2 h; labelled compound; also transferred between liposomes.

The target of data set [4] is C. elegans spartin (CeSpartin) (C. elegans). The experiment in a line: native gel or EMSA.
Data set [5] addresses spartin-like protein from Chaetomium thermophilum (CtSpartinL), residues 7-480 (Chaetomium thermophilum). The experiment in a line: native gel or EMSA. On the technique in general: Mobility shift assays separate free from complexed probe on a gel.
Data set [6] concerns the molecule itself. The experiment in a line: native gel or EMSA.

With `CCCCCCCCCCCCCCCC(=O)OC[C@H](COP(=O)([O-])OCC[N+](C)(C)C)OC(=O)CCCCCNc1ccc([N+](=O)[O-])c2nonc12` [NBD-PC, 1-palmitoyl-2-{6-[(7-nitro-2-1,3-benzoxadiazol-4-yl)amino]hexanoyl}-sn-glycero-3-phosphocholine], the “FRET-based lipid transfer between tethered liposomes” value in data set [1] is “addition of CeSpartin, HsSpartin or CtSpartinL to the liposomes all result in increased NBD fluorescence”; in data set [2], “we observed fluorescence increases consistent with NBD-PC or NBD-PE transfer”. For the same molecule, the native gel comigration entry in data set [3] was “senescence domain fragment comigrates with NBD-PC on native gels”.

As to `CCCCCCCCCCCCCCCC(=O)OC[C@H](COP(=O)(O)OCCN)OC(=O)CCCCCNc1ccc([N+](=O)[O-])c2nonc12` [NBD-PE, 1-palmitoyl-2-{6-[(7-nitro-2-1,3-benzoxadiazol-4-yl)amino]hexanoyl}-sn-glycero-3-phosphoethanolamine], the “FRET-based lipid transfer between tethered liposomes” value in data set [2] (less robust than NBD-PC) was “we observed fluorescence increases consistent with NBD-PC or NBD-PE transfer”.

Molecule “C. elegans spartin (CeSpartin) (natural protein)” displayed a stoichiometry N in data set [4] of 3.

Molecule “spartin-like protein from Chaetomium thermophilum (CtSpartinL), residues 7-480 (natural protein)” came in with a stoichiometry N in data set [5] of 3.

B1: human spartin (HsSpartin) (natural protein, UniProt Q8N0X7 1-666, looked up)
chain: MEQEPQNGEPAEIKIIREAYKKAFLFVNKGLNTDELGQKEEAKNYYKQGIGHLLRGISISSKESEHTGPGWESARQMQQKMKETLQNVRTRLEILEKGLATSLQNDLQEVPKLYPEFPPKDMCEKLPEPQSFSSAPQHAEVNGNTSTPSAGAVAAPASLSLPSQSCPAEAPPAYTPQAAEGHYTVSYGTDSGEFSSVGEEFYRNHSQPPPLETLGLDADELILIPNGVQIFFVNPAGEVSAPSYPGYLRIVRFLDNSLDTVLNRPPGFLQVCDWLYPLVPDRSPVLKCTAGAYMFPDTMLQAAGCFVGVVLSSELPEDDRELFEDLLRQMSDLRLQANWNRAEEENEFQIPGRTRPSSDQLKEASGTDVKQLDQGNKDVRHKGKRGKRAKDTSSEEVNLSHIVPCEPVPEEKPKELPEWSEKVAHNILSGASWVSWGLVKGAEITGKAIQKGASKLRERIQPEEKPVEVSPAVTKGLYIAKQATGGAAKVSQFLVDGVCTVANCVGKELAPHVKKHGSKLVPESLKKDKDGKSPLDGAMVVAASSVQGFSTVWQGLECAAKCIVNNVSAETVQTVRYKYGYNAGEATHHAVDSAVNVGVTAYNINNIGIKAMVKKTATQTGHTLLEDYQIVDNSQRENQEGAANVNVRGEKDEQTKEVKEAKKKDK
For B1, the “stoichiometry N” value in data set [6] is around 3.
